Laboratory results reported in patent US8859584B2, “TRPV1 antagonists” (AbbVie Inc., priority 2011, dated 2014).
Like-named read-outs stand apart in the source and are kept apart here.

Experiments:
[1] = target: T1, human TRPV1 (Homo sapiens, UniProt Q8NER1); assay: Capsaicin Activation Assay (FLIPR intracellular Ca2+, recombinant HEK293 cells); type: cell-based
T1 construct: expressed in transfected cells

[2] = target: T1, human TRPV1; assay: Acid Activation Assay (pH 5.0, FLIPR intracellular Ca2+, recombinant HEK293 cells); type: cell-based; settings: percentage of maximal pH 5.0-induced response remaining; HEK293 hTRPV1; max concentration 37.5 μM
Method in brief: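 HEK293 cells stably expressing recombinant hTRPV1 were loaded with calcium dye for 90-120 min at 25° C and pre-treated with compound for 3 min before a pH 5.0 (DPBS/MES) challenge. Peak FLIPR fluorescence over baseline is given as percentage of the maximal pH 5.0-induced response.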

[3] = recombinant HEK293 cells expressing hTRPV1, 50 nM capsaicin, read-out: human TRPV1 capsaicin IC50

T1 sequence (Q8NER1 whole entry): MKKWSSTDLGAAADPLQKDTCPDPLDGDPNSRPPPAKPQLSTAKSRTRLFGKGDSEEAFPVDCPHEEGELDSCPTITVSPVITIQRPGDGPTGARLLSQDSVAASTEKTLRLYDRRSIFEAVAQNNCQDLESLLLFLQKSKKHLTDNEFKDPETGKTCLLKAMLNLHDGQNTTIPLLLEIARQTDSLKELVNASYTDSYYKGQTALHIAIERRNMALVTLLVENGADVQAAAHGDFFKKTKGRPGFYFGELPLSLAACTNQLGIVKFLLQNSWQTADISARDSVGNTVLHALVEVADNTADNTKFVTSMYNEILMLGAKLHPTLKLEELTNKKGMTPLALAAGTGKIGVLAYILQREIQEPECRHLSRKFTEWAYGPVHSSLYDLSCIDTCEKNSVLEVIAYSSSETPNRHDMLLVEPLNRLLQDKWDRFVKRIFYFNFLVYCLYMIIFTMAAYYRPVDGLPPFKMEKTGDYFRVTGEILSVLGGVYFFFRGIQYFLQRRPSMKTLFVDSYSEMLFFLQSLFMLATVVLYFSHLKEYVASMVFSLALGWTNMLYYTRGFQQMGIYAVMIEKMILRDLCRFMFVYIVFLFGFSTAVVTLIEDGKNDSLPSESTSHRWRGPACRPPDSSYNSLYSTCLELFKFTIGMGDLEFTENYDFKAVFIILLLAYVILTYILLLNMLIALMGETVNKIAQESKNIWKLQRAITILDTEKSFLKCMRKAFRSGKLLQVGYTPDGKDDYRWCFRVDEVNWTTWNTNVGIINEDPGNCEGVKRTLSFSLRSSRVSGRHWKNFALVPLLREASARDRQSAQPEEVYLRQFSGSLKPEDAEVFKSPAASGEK

SMILES | IC50 [1, 3] [nM] | human TRPV1 H+ (max % remain) [2] [%] | IC50 [1] [nM]
O=C(Nc1cccc2c1C[C@H](O)C2)N[C@@H]1CC(CF)(CF)Oc2cc(Br)ccc21 [Example 45, 1-[(4R)-7-bromo-2,2-bis(fluoromethyl)-3,4-dihydro-2H-chromen-4-yl]-3-[(2R)-2-hydroxy-2,3-dihydro-1H-inden-4-yl]urea] | 43 | 58 | –
CC1(C)C[C@@H](NC(=O)Nc2cccc3c2C[C@H](O)C3)c2ccccc21 [Example 63, 1-[(1R)-3,3-dimethyl-2,3-dihydro-1H-inden-1-yl]-3-[(2R)-2-hydroxy-2,3-dihydro-1H-inden-4-yl]urea] | 140 | 86 | –
COc1ccc(C2CC(NC(=O)Nc3cccc4c3CC(O)C4)c3ccccc3O2)cc1OC (stereo not shown) [Example 113, 1-[2-(3,4-dimethoxyphenyl)-3,4-dihydro-2H-chromen-4-yl]-3-(2-hydroxy-2,3-dihydro-1H-inden-4-yl)urea] | > 38000 | 74 | –
O=C(Nc1c(F)ccc2c1C[C@H](O)C2)N[C@@H]1CC(CF)(CF)Oc2cc(Cl)ccc21 [Example 175, 1-[(4R)-7-chloro-2,2-bis(fluoromethyl)-3,4-dihydro-2H-chromen-4-yl]-3-[(2R)-5-fluoro-2-hydroxy-2,3-dihydro-1H-inden-4-yl]urea] | 470 | 37 | –
O=C(Nc1cccc2c1C[C@H](O)C2)N[C@@H]1CC(CF)(CF)Oc2ccccc21 [Example 69, 1-[(4R)-2,2-bis(fluoromethyl)-3,4-dihydro-2H-chromen-4-yl]-3-[(2R)-2-hydroxy-2,3-dihydro-1H-inden-4-yl]urea] | 400 | 91 | –
O=C(Nc1ccc(F)c2c1C[C@H](O)C2)N[C@@H]1CC(CF)(CF)Oc2ccccc21 [Example 151, 1-[(4R)-2,2-bis(fluoromethyl)-3,4-dihydro-2H-chromen-4-yl]-3-[(2S)-7-fluoro-2-hydroxy-2,3-dihydro-1H-inden-4-yl]urea] | 6600 | 6 | –
C[C@]1(CF)C[C@@H](NC(=O)Nc2c(F)ccc3c2CC(O)C3)c2ccc(Cl)cc2O1 (stereo partly drawn) [Example 25, 1-[(2R,4R)-7-chloro-2-(fluoromethyl)-2-methyl-3,4-dihydro-2H-chromen-4-yl]-3-(5-fluoro-2-hydroxy-2,3-dihydro-1H-inden-4-yl)urea] | 41 | 30 | –
O=C(Nc1cccc2c1C[C@@H](O)C2)N[C@H]1CC(CF)(CF)Oc2cc(Cl)ccc21 [Example 98, 1-[(4S)-7-chloro-2,2-bis(fluoromethyl)-3,4-dihydro-2H-chromen-4-yl]-3-[(2S)-2-hydroxy-2,3-dihydro-1H-inden-4-yl]urea] | 500 | 13 | –
O=C(Nc1cccc2c1C[C@@H](O)C2)N[C@@H]1CCOc2c(OC(F)(F)F)cccc21 [Example 73, 1-[(2S)-2-hydroxy-2,3-dihydro-1H-inden-4-yl]-3-[(4R)-8-(trifluoromethoxy)-3,4-dihydro-2H-chromen-4-yl]urea] | 25 | 18 | –
O=C(Nc1ccc(F)c2c1C[C@@H](O)C2)N[C@@H]1CC2(CCC2)Oc2ccc(F)cc21 [Example 163, 1-[(4R)-6-fluoro-3,4-dihydrospiro[chromene-2,1′-cyclobutan]-4-yl]-3-[(2R)-7-fluoro-2-hydroxy-2,3-dihydro-1H-inden-4-yl]urea] | 690 | 38 | –
CC1(C)Oc2ccc(F)cc2CC1NC(=O)Nc1cccc2c1C[C@H](O)C2 (stereo partly drawn) [Example 91, 1-(6-fluoro-2,2-dimethyl-3,4-dihydro-2H-chromen-3-yl)-3-[(2R)-2-hydroxy-2,3-dihydro-1H-inden-4-yl]urea] | 82 | 78 | –
COc1ccc2c(c1)OCC(Cc1ccc(Cl)c(Cl)c1)C2NC(=O)Nc1cccc2c1CC(O)C2 (stereo not shown) [Example 114, 1-[3-(3,4-dichlorobenzyl)-7-methoxy-3,4-dihydro-2H-chromen-4-yl]-3-(2-hydroxy-2,3-dihydro-1H-inden-4-yl)urea] | 720 | 43 | –
CN1CC[C@@H](NC(=O)Nc2cccc3c2C[C@H](O)C3)c2ccc(C(F)(F)F)cc21 [Example 23, 1-[(2R)-2-hydroxy-2,3-dihydro-1H-inden-4-yl]-3-[(4R)-1-methyl-7-(trifluoromethyl)-1,2,3,4-tetrahydroquinolin-4-yl]urea] | 51 | 74 | –
O=C(Nc1cccc2c1C[C@H](O)C2)N[C@H]1CC2(CCC2)Oc2ccc(F)cc21 [Example 101, 1-[(4S)-6-fluoro-3,4-dihydrospiro[chromene-2,1′-cyclobutan]-4-yl]-3-[(2R)-2-hydroxy-2,3-dihydro-1H-inden-4-yl]urea] | 1200 | 90 | –
O=C(Nc1cccc2c1C[C@H](O)C2)N[C@@H]1CCOc2c(OC(F)(F)F)cccc21 [Example 6, 1-[(2R)-2-hydroxy-2,3-dihydro-1H-inden-4-yl]-3-[(4R)-8-(trifluoromethoxy)-3,4-dihydro-2H-chromen-4-yl]urea] | 16 | 67 | –
CC1(C)C[C@@H](NC(=O)Nc2ccc(F)c3c2C[C@H](O)C3)c2cccc(C(F)(F)F)c2O1 [Example 135, 1-[(4R)-2,2-dimethyl-8-(trifluoromethyl)-3,4-dihydro-2H-chromen-4-yl]-3-[(2S)-7-fluoro-2-hydroxy-2,3-dihydro-1H-inden-4-yl]urea] | 42 | 3 | –
CC1(C)C[C@@H](NC(=O)Nc2cccc3c2C[C@@H](O)C3)c2ccccc2O1 [Example 82, 1-[(4R)-2,2-dimethyl-3,4-dihydro-2H-chromen-4-yl]-3-[(2S)-2-hydroxy-2,3-dihydro-1H-inden-4-yl]urea] | 510 | 56 | –
O=C(Nc1ccc(F)c2c1C[C@H](O)C2)N[C@@H]1CC(CF)(CF)Oc2cc(OC(F)(F)F)ccc21 [Example 139, 1-[(4R)-2,2-bis(fluoromethyl)-7-(trifluoromethoxy)-3,4-dihydro-2H-chromen-4-yl]-3-[(2S)-7-fluoro-2-hydroxy-2,3-dihydro-1H-inden-4-yl]urea] | 370 | 2 | –
O=C(Nc1ccc(F)c2c1C[C@H](O)C2)N[C@@H]1CCOc2cc(OC(F)(F)F)ccc21 [Example 150, 1-[(2S)-7-fluoro-2-hydroxy-2,3-dihydro-1H-inden-4-yl]-3-[(4R)-7-(trifluoromethoxy)-3,4-dihydro-2H-chromen-4-yl]urea] | 1600 | 3 | –

The next lines start with the values.

IC50 [1, 3] [nM] | human TRPV1 H+ (max % remain) [2] [%] | IC50 [1] [nM] | SMILES
110 | 4 | – | O=C(Nc1cccc2c1C[C@@H](O)C2)N[C@@H]1CC2(CCC2)Oc2ccc(F)cc21 [Example 80, 1-[(4R)-6-fluoro-3,4-dihydrospiro[chromene-2,1′-cyclobutan]-4-yl]-3-[(2S)-2-hydroxy-2,3-dihydro-1H-inden-4-yl]urea]
3400 | 57 | – | O=C(Nc1ccc(F)c2c1C[C@@H](O)C2)N[C@@H]1CC(CF)(CF)Oc2ccccc21 [Example 169, 1-[(4R)-2,2-bis(fluoromethyl)-3,4-dihydro-2H-chromen-4-yl]-3-[(2R)-7-fluoro-2-hydroxy-2,3-dihydro-1H-inden-4-yl]urea]
18 | 70 | – | CC(C)(C)c1cccc2c1OCC[C@H]2NC(=O)Nc1cccc2c1C[C@H](O)C2 [Example 51, 1-[(4R)-8-tert-butyl-3,4-dihydro-2H-chromen-4-yl]-3-[(2R)-2-hydroxy-2,3-dihydro-1H-inden-4-yl]urea]
1600 | 46 | – | O=C(Nc1cccc2c1C[C@@H](O)C2)N[C@@H]1CC(CF)(CF)Oc2ccccc21 [Example 86, 1-[(4R)-2,2-bis(fluoromethyl)-3,4-dihydro-2H-chromen-4-yl]-3-[(2S)-2-hydroxy-2,3-dihydro-1H-inden-4-yl]urea]
– | 36 | 220 | O=C(Nc1ccc(F)c2c1C[C@@H](O)C2)N[C@@H]1CC(CF)(CF)Oc2cc(Cl)ccc21 [Example 133, 1-[(4R)-7-chloro-2,2-bis(fluoromethyl)-3,4-dihydro-2H-chromen-4-yl]-3-[(2R)-7-fluoro-2-hydroxy-2,3-dihydro-1H-inden-4-yl]urea]
710 | 14 | – | COc1ccc2c(c1)OC(c1ccc(Cl)cc1)CC2NC(=O)Nc1cccc2c1CC(O)C2 (stereo not shown) [Example 122, 1-[2-(4-chlorophenyl)-7-methoxy-3,4-dihydro-2H-chromen-4-yl]-3-(2-hydroxy-2,3-dihydro-1H-inden-4-yl)urea]
46 | 96 | – | CCCC1(CCC)C[C@@H](NC(=O)Nc2cccc3c2C[C@H](O)C3)c2cc(F)ccc2O1 [Example 56, 1-[(4R)-6-fluoro-2,2-dipropyl-3,4-dihydro-2H-chromen-4-yl]-3-[(2R)-2-hydroxy-2,3-dihydro-1H-inden-4-yl]urea]
4100 | 81 | – | O=C(Nc1cccc2c1C[C@H](O)C2)N[C@@H]1CCOc2ccccc21 [Example 47, 1-[(4R)-3,4-dihydro-2H-chromen-4-yl]-3-[(2R)-2-hydroxy-2,3-dihydro-1H-inden-4-yl]urea]
80 | 13 | – | CN1CC[C@@H](NC(=O)Nc2cccc3c2C[C@@H](O)C3)c2ccc(C(F)(F)F)cc21 [Example 84, 1-[(2S)-2-hydroxy-2,3-dihydro-1H-inden-4-yl]-3-[(4R)-1-methyl-7-(trifluoromethyl)-1,2,3,4-tetrahydroquinolin-4-yl]urea]
23 | 99 | – | CCCC1(CCC)C[C@@H](NC(=O)Nc2cccc3c2C[C@H](O)C3)c2cccc(F)c2O1 [Example 59, 1-[(4R)-8-fluoro-2,2-dipropyl-3,4-dihydro-2H-chromen-4-yl]-3-[(2R)-2-hydroxy-2,3-dihydro-1H-inden-4-yl]urea]
